Structures can show the parent of a compound that is named as a salt. Where two headings read alike, the source gives them in different places.
Test system: episomal HPV-16 DNA in W12-20850 cells
Assay: W-12 cellular assay (hybrid capture quantification of episomal HPV-16 DNA)
Type: cell-based, HPV16
Settings: read-out: W-12
Protocol: Compounds of the current invention are believed useful in the treatment and/or prophylaxis of conditions and diseases associated with HPV infection. Activity mediated through HPV was determined using the following W-12 cellular assay.
The W12 cell line used contains HPV16 DNA and was derived from a low-grade cervical dysplasia tissue by Margaret Stanley and subsequently clonally selected by Paul Lambert (University of Wisconsin). One of these clones, W12-20850, contains 1000 copies of episomal HPV16 DNA and was used in the cell-based assay. W12-20850 cells were routinely cultured with a gamma-irradiated (6000 rads) feeder layer of 3T3 cells. Assays, however, were run in the absence of a 3T3 feeder layer. W12-20850 and 3T3 cells were routinely split when they were sub-confluent. W12-20850 were grown in W12 Medium which is constituted of 25% DMEM (Gibco BRL, Cat # 12430-047), 75% F12 Media (Gibco BRL, Cat # 11765-021) and 2.5% FBS. The additives include […] Adenine (Sigma, Cat # A-9795), […] Hydrocortisone (Calbiochem, Cat # 386698); 5.0 mg/ml Bovine Insulin (Sigma, Cat # I-1882), 8.4 ng/ml cholera toxin (Fluka, Cat # 26694) and 10 ng/ml EGF (Invitrogen, Cat # 13247-051). 3T3 cells were grown in DMEM containing 10% FBS. Cell lines were incubated at 37° C., in the presence of 5% CO2.
For the assay, W12-20850 cells were seeded into a 96 well plate-containing compound. Plates were incubated at 37° C. in the presence of 5% CO2, for four days. On the fourth day, cells were lysed and the amount of episomal. HPV-16 DNA was quantified using a non-radioactive hybrid capture technique with HPV-16 specific capture and detection probes. The percent inhibition relative to untreated control cells' was then determined.
The hybrid capture assay is run in a 96 well plate format. Hybridization plates (Nunc Maxisorb Cat # 450320) were coated with a mixture of capture probe and ReactiBind solution for at least 4 hours and then washed with 0.2×SSC, 0.05% Tween20 (SSCT) prior to blocking with […] of 0.2 N NaOH, 1% Igepal, 10 mg/ml hsDNA for 6-8 hours. The hybridization was carried out by mixing 27 μl of lysed cells with 45 μl of denatured detection probe in 6M guanidine isothiocyanate. To prevent evaporation, 50 μl of mineral oil was added to each well. The plate was then heated to 90° C. for 6.5 minutes and the hybridization continued at 42° C. overnight. Assay plates were washed 6 times with SSC/T. Anti-digoxigenin HRP-conjugated Ab (Boehringer Mannheim 1207733, 1:5000) was incubated in the wells for 30 min at room temperature and washed with PBS/0.05% Tween-20. SuperSignal LBA substrate (Pierce Cat # 37070) was added, and chemiluminescence was measured using Wallac 1420 Victor plate reader.

[1] = Human papillomavirus 16, W12-20850, 96 h
[2] = Human papillomavirus 16, 96 h, W12-20850 cells, four days incubation, episomal HPV-16 DNA by hybrid capture, inhibition relative to untreated control cells

SMILES | IC50 [2] [nM] | IC50 [1] [nM]
Cc1ccc2[nH]c3c(c2c1)CCC[C@@H]3N[C@@H](C)c1ccccc1 [Example 46, (1S)-6-Methyl-N-[(1S)-1-phenylethyl]-2,3,4,9-tetrahydro-1H-carbazol-1-amine hydrochloride salt] |  | 8600
Cc1ccc2[nH]c3c(c2c1)CCC[C@H]3N[C@@H](C)c1ccccc1 [Example 47, (1R)-6-Methyl-N-[(1S)-1-phenylethyl]-2,3,4,9-tetrahydro-1H-carbazol-1-amine hydrochloride salt] |  | 160
C[C@@H](NC1CCCc2c1[nH]c1ccc([N+](=O)[O-])cc21)c1ccccc1 (stereo partly drawn) [Example 49, 6-Nitro-N-[(1R)-1-phenylethyl]-2,3,4,9-tetrahydro-1H-carbazol-1-amine hydrochloride salt] |  | 83
Brc1ccc2[nH]c3c(c2c1)CCC3NCCc1ccccc1 (stereo not shown) [Example 50, 7-Bromo-N-(2-phenylethyl)-1,2,3,4-tetrahidrocyclopenta[b]indol-3-amine hydrochloride salt] | 11000 | 
C[C@@H](N[C@@H]1CCc2c1[nH]c1ccc(Br)cc21)c1ccccc1 [Example 51, (3R)-7-Bromo-N-[(1R)-1-phenylethyl]-1,2,3,4-tetrahydrocyclooenta[b]indol-3-amine hydrochloride salt] | 122 | 
COc1ccc2[nH]c3c(c2c1)CCCC3NCc1ccccc1 (stereo not shown) [Example 53, N-Benzyl-6-methoxy-2,3,4,9-tetrahydro-1H-carbazol-1-amine hydrochloride salt] |  | 7600
Brc1ccc2[nH]c3c(c2c1)CCCCC3NCc1ccccc1 (stereo not shown) [Example 54, N-Benzyl-2-bromo-5,6,7,8,9,10-hexahydrocyclohepta[b]indol-6-amine hydrochloride] |  | 1100
Fc1ccc(CNC2CCCc3c2[nH]c2ccc(Br)cc32)cc1 (stereo not shown) [Example 57, 6-Bromo-N-(4-fluorobenzyl)-2,3,4,9-tetrahydro-1H-carbazol-1-amine hydrochloride] |  | 139
FC(F)(F)c1ccc2[nH]c3c(c2c1)CCCC3NCc1ccccc1 (stereo not shown) [Example 58, N-Benzyl-6-(trifluoromethyl)-2,3,4,9-tetrahydro-1H-carbazol-1-amine hydrochloride] |  | 1000
C[C@@H](NC1CCCc2c1[nH]c1ccc(C(F)(F)F)cc21)c1ccccc1 (stereo partly drawn) [Example 59, N-[(1R)-1-Phenylethyl]-6-(trifluoromethyl)-2,3,4,9-tetrahydro-1H-carbazol-1-amine hydrochloride] |  | 287
Brc1ccc2[nH]c3c(c2c1)CCCC3NC(c1ccccc1)c1ccccc1 (stereo not shown) [Example 60, N-Benzhydryl-6-bromo-2,3,4,9-tetrahydro-1H-carbazol-1-amine hydrochloride] |  | 14
Brc1ccc2c3c([nH]c2c1)C(NCc1ccccc1)CCC3 (stereo not shown) [Example 61, N-Benzyl-7-bromo-2,3,4,9-tetrahydro-1H-carbazol-1-amine hydrochloride] |  | 11000
C[C@@H](NC1CCCc2c1[nH]c1cc(Br)ccc21)c1ccccc1 (stereo partly drawn) [Example 62, 7-Bromo-N-[(1R)-1-phenylethyl]-2,3,4,9-tetrahydro-1H-carbazol-1-amine hydrochloride] |  | 8000
CC(C)NC(=O)NC1CCCc2c1[nH]c1ccc(Br)cc21 (stereo not shown) [Example 65, N-(6-Bromo-2,3,4,9-tetrahydro-1H-carbazol-1-yl)-N′-isopropylurea] | 5000 | 
CC(=O)NC1CCCc2c1[nH]c1ccc(Br)cc21 (stereo not shown) [Example 67, N-(6-Bromo-2,3,4,9-tetrahydro-1H-carbazol-1-yl)acetamide] | 13000 | 
Brc1cccc2c3c([nH]c12)C(NCc1ccccc1)CCC3 (stereo not shown) [Example 71, N-Benzyl-8-bromo-2,3,4,9-tetrahydro-1H-carbazol-1-amine hydrochloride] |  | 11400

Further lines, with some results ahead:

IC50 [2] [nM] | SMILES | IC50 [1] [nM]
29000 | C[C@@H](N[C@H]1CCc2c1[nH]c1ccc(Br)cc21)c1ccccc1 [Example 52, (3S)-7-Bromo-N-[(1R)-1-phenylethyl]-1,2,3,4-tetrahydrocyclobenta[b]indol-3-amine hydrochloride salt] | 
1000 | C[C@@H](NC1CCCCc2c1[nH]c1ccc(Br)cc21)c1ccccc1 (stereo partly drawn) [Example 55, 2-Bromo-N-[(1R)-1-phenylethyl]-5,6,7,8,9,10-hexahydrocycloheota[b]indol-6-amine hydrochloride] | 
774 | Brc1ccc2[nH]c3c(c2c1)CCCCC3NCCc1ccccc1 (stereo not shown) [Example 56, 2-Bromo-N-(2-phenylethyl)-5,6,7,8,9,10-hexahydrocycloheDta[b]indol-6-amine hydrochloride] | 
3900 | Brc1ccc2c3c([nH]c2c1)C(NC1Cc2ccccc2C1)CCC3 (stereo not shown) [Example 63, 7-Bromo-N-(2.3-dihydro-1H-inden-2-yl)-2,3,4,9-tetrahydro-1H-carbazol-1-amine hydrochloride] | 
95 | Brc1ccc2[nH]c3c(c2c1)CCCC3OCc1ccccc1 (stereo not shown) [Example 64, 6-Bromo-1-[(phenylmethyl)oxy]-2,3,4,9-tetrahydro-1H-carbazole] | 
165 | COC(=O)NC1CCCc2c1[nH]c1ccc(Br)cc21 (stereo not shown) [Example 66, Methyl 6-bromo-2,3,4,9-tetrahydro-1H-carbazol-1-ylcarbamate] | 
380 | O=C(NC1CCCc2c1[nH]c1ccc(Br)cc21)C1CCCCC1 (stereo not shown) [Example 68, N-(6-Bromo-2,3,4,9-tetrahydro-1H-carbazol-1-yl)cyclohexanecarboxamide] | 
2300 | CS(=O)(=O)NC1CCCc2c1[nH]c1ccc(Br)cc21 (stereo not shown) [Example 69, N-(6-Bromo-2,3,4,9-tetrahydro-1H-carbazol-1-yl)methanesulfonamide] | 
10300 | NC(=O)NC1CCCc2c1[nH]c1ccc(Br)cc21 (stereo not shown) [Example 70, N-(6-Bromo-2,3,4,9-tetrahydro-1H-carbazol-1-yl)urea] | 

From patent US7622494B2, “Chemical compounds” (SmithKline Beecham Corporation, priority 2003, dated 2009)
